These results are taken from ChEMBL document CHEMBL1130552, “Synthesis and biological evaluation of 14,15-dehydro-LTA4 analog” (1997).

For this assay, the species on record is Cavia porcellus. Description: Relative contractile potency in guinea pig ileum assay compared to 14,15-dehydro-LTA 4 methyl ester. The format is functional.

On to `CCCCCC#CC\C=C/C=C/C=C/[C@@H](SC[C@H](NC(=O)CC[C@H](N)C(=O)O)C(=O)NCC(=O)O)[C@@H](O)CCCC(=O)O`, for which the Relative contractile potency was 0.9.
